Source: patent US20230087118A1, “IMIDAZO[1,2-a][sequence] DERIVATIVES AND THEIR USE IN THE TREATMENT OF DISEASE” (priority 2019, published 2023)
pIC50: −log10 of the molar value.

Legend:
[1] = biological target: T1, IRAK4 (Homo sapiens, UniProt Q9NWZ3); test: 2-hour 10 μM ATP Biochemical Assay (MesoScale Detection format; IRAK4 phosphorylation of biotin labeled IRAK1 activation loop peptide); details: 0.1 nM IRAK4
T1 sequence (Q9NWZ3 1-460): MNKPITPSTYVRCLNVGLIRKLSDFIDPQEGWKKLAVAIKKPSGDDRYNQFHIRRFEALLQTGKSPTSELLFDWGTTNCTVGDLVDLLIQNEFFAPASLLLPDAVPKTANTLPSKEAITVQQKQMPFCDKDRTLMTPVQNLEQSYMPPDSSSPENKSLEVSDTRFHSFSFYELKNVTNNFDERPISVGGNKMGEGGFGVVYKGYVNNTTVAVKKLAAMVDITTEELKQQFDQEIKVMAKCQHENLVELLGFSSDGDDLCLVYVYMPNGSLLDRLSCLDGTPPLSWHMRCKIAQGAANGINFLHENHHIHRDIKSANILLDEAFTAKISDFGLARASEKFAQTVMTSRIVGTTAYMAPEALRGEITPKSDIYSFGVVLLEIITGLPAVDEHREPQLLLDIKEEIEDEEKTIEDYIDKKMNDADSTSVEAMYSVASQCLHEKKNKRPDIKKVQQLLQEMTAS
Description: Compounds of the invention were assessed for their ability to inhibit IRAK4 activity. The inhibitory properties of the compounds of the invention described herein can be evidenced by testing in any one of the following assays.
The 2-hour 10 μM ATP Biochemical Assay employs a MesoScale Detection (MSD) format. The kinase reaction is based on the IRAK4 phosphorylation of a biotin labeled peptide (IRAK1 activation loop sequence 360-389).
The kinase reaction in 30 μl is carried out in wells of a 384 well polypropylene assay plate, with 0.1 nM IRAK4, 1.6 μM of biotinylated peptide substrate and 10 μM ATP in 50 mM Hepes, pH 7.5, 60 mM NaCl, 5 mM MgCl2, 0.25 mM MnCl2, 2 mM DTT, 0.01% BSA, and 1% DMSO (from compound DMSO stocks), for 2 hour at room temperature. The activity is quenched with 11 μl of 70 mM EDTA, pH 8.
To detect the phosphorylated biotinylated peptide substrate, 30 μl of the quenched reaction mixture is added to equivalent wells of a 384 well streptavidin coated MesoScale plate (Meso Scale Discovery #L21SA-1). After a 1 hour incubation of the plate for 1 hour at room temperature with gentle mixing, the plate wells are washed 3 times with 50 mM Tris, pH 7.5, 150 mM NaCl, 0.02% Tween-20.
A 25 μl volume of 1:500 anti-P-Threonine Rabbit polyclonal Antibody plus 1:500 Goat-anti-Rabbit Sulfo Tag Antibody (Meso Scale Discovery R32AB-1) in 50 mM Tris, pH 7.5, 150 mM NaCl, 0.02% Tween-20 plus 2% BSA is then added to each well. After a 1-hour incubation of the plate for 1 hour at room temperature with gentle mixing, the plate wells are washed, 3 times with 50 mM Tris, pH 7.5, 150 mM NaCl, 0.02% Tween-20. A 40 μl volume of 2× MSD Read Buffer (Meso Scale Discovery R92TC-1) is added to each well, and the plate is read immediately in an MSD Plate Reader (Meso Scale Discovery).

[2] = biological target: T1, IRAK4; test: biochemical; details: for IC50: IRAK4 Biochemical Assay (1 mM ATP, 2 h) IC50 (μM), 1 mM ATP, 2 h, 100 pM IRAK4

SMILES	pIC50 [1]	pIC50 [2]	IC50 [2] [µM]
COc1cc2nc(C3CCOCC3)cn2cc1C(=O)Nc1scnc1C [Example 105]	7.37		
COc1cc2nc(C3CCOCC3)cn2cc1C(=O)Nc1cc(F)ccc1OC(C)C [Example 106]	7.10		
COc1cc2nc(C3CCOCC3)cn2cc1C(=O)NC1CCCC2C1C2(F)F (stereo not drawn) [Example 117]	6.25		
COc1cc2nc(C3CCOCC3)cn2cc1C(=O)Nc1cc(Cl)c(F)c(Cl)c1 [Example 119]	6.10		
COc1cc2nc(C3CCOCC3)cn2cc1C(=O)NC1C2CCOC2C12CCC2 (stereo not drawn) [Example 124]	6.91		
COc1cc2nc(C3CCOCC3)cn2cc1C(=O)NC1CCCC2(CC2)C1 (stereo not drawn) [Example 126]	6.18		
COc1cc2nc(C3CCOCC3)cn2cc1C(=O)Nc1cc(C)cc(C)n1 [Example 127]	6.70		
CCc1ncc(F)cc1NC(=O)c1cn2cc(C3CCOCC3)nc2cc1OC [Example 128]	7.17		
COc1cc2nc(C3CCOCC3)cn2cc1C(=O)Nc1cccc2c1C1CCC2O1 (stereo not drawn) [Example 130]	6.85		
COc1cc2nc(C3CCOCC3)cn2cc1C(=O)Nc1cccnc1C [Example 131]	7.60		
COc1cc2nc(C3CCOCC3)cn2cc1C(=O)Nc1cc(F)ccn1 [Example 132]	7.47		
COc1cc2nc(C3CCOCC3)cn2cc1C(=O)Nc1cc(Cl)cc(Cl)c1 [Example 133]	6.59		
COc1cc2nc(C3CCOCC3)cn2cc1C(=O)NC1CC(C)C1 (stereo not drawn) [Example 134]	6.20		
COc1cc2nc(C3CCOCC3)cn2cc1C(=O)NC1CC(OC)c2ccccc21 (stereo not drawn) [Example 136]	6.03		
COc1cc2nc(C3CCOCC3)cn2cc1C(=O)Nc1cc(F)c(F)c(F)c1 [Example 137]	6.88		
COc1cc2nc(C3CCOCC3)cn2cc1C(=O)Nc1cnsc1 [Example 138]	7.19		
COc1cc2nc(C3CCOCC3)cn2cc1C(=O)NC1CCCC(F)C1 (stereo not drawn) [Example 139]	6.14		
COc1cc2nc(C3CCOCC3)cn2cc1C(=O)Nc1ccccc1CC(C)C [Example 140]	6.09		
COc1cc2nc(C3CCOCC3)cn2cc1C(=O)Nc1cccnc1C1CC1 [Example 148]	7.06		
COc1cc2nc(C3CCOCC3)cn2cc1C(=O)Nc1scnc1C(C)C [Example 150]	7.64		

SMILES	pIC50 [1]	pIC50 [2]	IC50 [2] [µM]
COc1cc(F)cc(NC(=O)c2cn3cc(C4CCOCC4)nc3cc2OC)c1 [Example 151]	7.34		
COc1cc2nc(C3CCOCC3)cn2cc1C(=O)Nc1cc(F)cc(F)c1 [Example 152]	7.64		
COc1cc2nc(C3CCOCC3)cn2cc1C(=O)Nc1ccns1 [Example 156]	6.83		
COc1cccc(NC(=O)c2cn3cc(C4CCOCC4)nc3cc2OC)c1 [Example 157]	7.68		
COc1cc2nc(C3CCOCC3)cn2cc1C(=O)Nc1ccc(F)c(C(F)F)c1 [Example 159]	7.70		
COc1cc2nc(C3CCOCC3)cn2cc1C(=O)Nc1cccc(OC)c1C [Example 160]	7.15		
COc1cc2nc(C3CCOCC3)cn2cc1C(=O)N[C@H]1CC[C@@H](OC)CC1 [Example 161]	6.46		
COc1cc2nc(C3CCOCC3)cn2cc1C(=O)Nc1cccc(C2CC2)c1 [Example 163]	6.16		
COc1cc2nc(C3CCOCC3)cn2cc1C(=O)Nc1cc(F)c(F)c(C(F)F)c1 [Example 164]	7.43		
COc1cc2nc(C3CCOCC3)cn2cc1C(=O)Nc1cccc(F)c1 [Example 165]	7.62		
COc1cc2nc(C3CCOCC3)cn2cc1C(=O)Nc1cc(C)cc(C)c1OC [Example 166]	6.51		
CCc1ccccc1NC(=O)c1cn2cc(C3CCOCC3)nc2cc1OC [Example 167]	7.14		
COc1cc2nc(C3CCOCC3)cn2cc1C(=O)Nc1nc(C)c(Cl)s1 [Example 171]	6.07		
COc1cc2nc(C3CCOCC3)cn2cc1C(=O)Nc1cc(F)cc(Cl)c1 [Example 172]	7.68		
COc1cc2nc(C3CCOCC3)cn2cc1C(=O)NC1CCCC(C)C1C (stereo not drawn) [Example 175]	6.13		
COc1cc2nc(C3CCOCC3)cn2cc1C(=O)Nc1cc(C)cc(F)c1 [Example 176]	7.52		
COc1cc2nc(C3CCOCC3)cn2cc1C(=O)Nc1cc(C)cc(C)c1 [Example 178]	6.52		
COc1cc2nc(C3CCOCC3)cn2cc1C(=O)Nc1cccc2c1CCOC2 [Example 180]	7.72		
COc1cc2nc(C3CCOCC3)cn2cc1C(=O)Nc1ccc(F)c(F)c1C [Example 181]	6.77		

More lines, now with the values ahead:

pIC50 [1]	pIC50 [2]	IC50 [2] [µM]	SMILES
9.00	8.77		CCOc1cc2nc(C[C@H]3CCOC3)cn2cc1C(=O)Nc1cccc(C(F)F)n1 (single isomer, unassigned) [Example 64]
8.05		0.0263	COc1cccc(NC(=O)c2cn3cc(C4CC(OC)C4)nc3cc2OC)n1 (stereo not drawn) [Example 8]
8.05		0.0242	COc1cccc(NC(=O)c2cn3cc(C4CC45CCCCO5)nc3cc2OC)n1 (stereo not drawn) [Example 9]
8.10		0.0293	COc1cccc(NC(=O)c2cn3cc(CC4CCOCC4)nc3cc2OC)n1 [Example 10]
8.70		0.0034	COc1cccc(NC(=O)c2cn3cc(C4CC5(CCOC5)C4)nc3cc2OC)n1 (stereo not drawn) [Example 11]
8.52	8.07		COc1cccc(NC(=O)c2cn3cc(C4CCOCC4)nc3cc2OC)n1 [Example 21]
8.30	7.74		COc1cccc(NC(=O)c2cn3cc(C4C5COCC54)nc3cc2OC)n1 (stereo not drawn) [Example 22]
8.15	7.68		COc1cccc(NC(=O)c2cn3cc(CC4CCOC4)nc3cc2OC)n1 (stereo not drawn) [Example 24]
8.10	7.89		COc1cc2nc(C3C4COCC43)cn2cc1C(=O)Nc1cccc(C(F)(F)F)n1 (stereo not drawn) [Example 32]
8.30	7.85		COc1cc2nc(CC3CCOC3)cn2cc1C(=O)Nc1cccc(C(F)(F)F)n1 (stereo not drawn) [Example 33]
8.10		0.0262	COc1cc2nc(C3CC(OC)C3)cn2cc1C(=O)Nc1cccc(C(F)(F)F)n1 (stereo not drawn) [Example 36]
8.05		0.0253	COc1cc2nc(C34CC(C#N)(C3)C4)cn2cc1C(=O)Nc1cccc(C(F)(F)F)n1 [Example 37]
8.70		0.0048	COc1cc2nc(C3CC4(CCOC4)C3)cn2cc1C(=O)Nc1cccc(C(F)(F)F)n1 (stereo not drawn) [Example 38]
8.05		0.0305	COc1cc2nc(C3CC34CCOCC4)cn2cc1C(=O)Nc1cccc(C(F)(F)F)n1 (stereo not drawn) [Example 40]
8.30		0.0157	COc1cc2nc(C3CCC(OC)C3)cn2cc1C(=O)Nc1cccc(C(F)(F)F)n1 (stereo not drawn) [Example 41]
8.70		0.0032	COc1cc2nc(C3CCOC(C)(C)C3)cn2cc1C(=O)Nc1cccc(C(F)(F)F)n1 (stereo not drawn) [Example 43]
8.52		0.0088	COc1cc2nc(C3CC4CCC(C3)O4)cn2cc1C(=O)Nc1cccc(C(F)(F)F)n1 (stereo not drawn) [Example 44]
7.89		0.0401	COc1cc2nc(CC3CCOCC3)cn2cc1C(=O)Nc1cccc(C(F)(F)F)n1 [Example 45]
7.89		0.04	COc1cc2nc(C3CCOCC3)cn2cc1C(=O)Nc1ccn(C(F)F)n1 [Example 48]
9.00	8.82		CCOc1cc2nc(C[C@@H]3CCOC3)cn2cc1C(=O)Nc1cccc(C(F)F)n1 [Example 65, N-[6-(difluoromethyl)-2-pyridyl]-7-ethoxy-2-[[(3R)-tetrahydrofuran-3-yl]methyl]imidazo[1,2-a]pyridine-6-carboxamide]
8.30	7.87		CCOc1cc2nc(C(C)(C)C#N)cn2cc1C(=O)Nc1cccc(C(F)F)n1 [Example 74]
7.74			COc1cc2nc(C3CCOCC3)cn2cc1C(=O)Nc1cc(F)cc(F)c1F [Example 120]
7.80			COc1cc2nc(C3CCOCC3)cn2cc1C(=O)Nc1cccc(F)c1C [Example 129]
7.72			COc1cc2nc(C3CCOCC3)cn2cc1C(=O)Nc1cccc(C)c1C [Example 153]
